Results as given in US5635510A, “Substituted pyrrolidin-3-yl-alkyl-piperidines” (Merrell Pharmaceuticals Inc., priority 1994, dated 1997).

Tests used:
NK1 receptor [1] = target: T1, NK1 receptor (Homo sapiens, UniProt P25103); test: Antagonism of NK1 receptor mediated (SP-induced) phosphatidylinositol turnover in UC11 cells; type: cell-based
T1 construct: antagonizes both NK1 (on UC11 cells); endogenous in cells; host or cells: UC11 cells
Experimental: (§1) Tachykinin-mediated inositol phosphate accumulation was measured in UC11 or SKLKB82#3 cells in the presence and absence of NK1 or NK2 receptor antagonists, respectively. Tissues were incubated in Krebs-Henseleit buffer at 37° C. with 95% O2 -5% CO2 gassing. Tissues were then incubated with fresh buffer containing 100 μCi of myo-[2-3H(N)] inositol at 37° C. for 60 min with gentle gassing. After washing twice in 5 ml room temperature buffer containing 10 mM LiCl, tissues were incubated for 30 min at room temperature with a buffer change at 15 min. Buffer was removed and Krebs-Henseleit buffer (containing 40 μg/ml bacitracin, 4 μg/ml each of leupeptin and chymostatin, 0.1% bovine serum albumin and 10 mM each of thiorphan and LiCl) added. After 15 min, SP was added to UC11 cells or NKA to SKLKB82#3 cells at various concentrations to start the reaction. After incubation for 60 min at room temperature the reaction was terminated by addition of 930 μl chloroform: methanol (1:2 by volume) to each tube, followed by 310 μl chloroform and 310 μl doubly distilled water. Samples were vortexed, centrifuged, and 0.9 ml of the aqueous (top) phase removed and added to 2 ml ddH2 O. The mixture was vortexed and loaded onto a 50% Bio-Rad AG 1-X8 (formate form, 100-200 mesh) exchange column (Bio-Rad Laboratories, Hercules, Calif.). The columns were washed, in order, with: 1) 10 ml doubly distilled water, 2) 5 ml of 5 mM disodium tetraborate/60 mM sodium formate, and 3) 5 ml of 1M ammonium formate/0.1M formic acid. The third elution was collected and 1 ml counted in 7 ml scintillation fluid. A 50 μl aliquot of the organic (bottom) phase was removed, dried in a scintillation vial and counted in 7 ml scintillation fluid.
(§2) The ratio of DPM in the aqueous phase aliquot (total inositol phosphates) to the DPM in the 50 μl organic phase aliquot (total [^3 H]inositol incorporated) was calculated for each sample. Data are expressed as a percent of agonist-induced accumulation of [^3 H]-inositol phosphates over basal levels. The ratios in the presence of test compound and/or standards were compared to the ratios for control samples (i.e. no stimulating agonist). Dose-response graphs were constructed and the abilities of the test compounds to inhibit tachykinin-induced phosphatidyinositol turnover determined with the aid of a computer program. […] Data is expressed as percent stimulation of total inositol phosphate accumulation over basal levels and normalized to the maximum response produced by SP. […] Schild analysis is performed using dose response curves (such as those presented in FIGS. 1a and 1b) to obtain a value indicative of the strength of a competitive antagonist and is expressed as the pA2, which is the negative logarithm of the molar concentration of antagonist which reduces the effect of a dose of agonist to one-half of that expected at the dose of agonist.

NK2 receptor = target: T2, NK2 receptor (Bos taurus, UniProt P05363); test: Antagonism of NK2 receptor mediated (NKA-induced) phosphatidylinositol turnover in SKLKB82#3 cells; type: cell-based
T2 construct: expressed in transfected cells; host or cells: SKLKB82#3 cells
T2 sequence (P05363 1-384): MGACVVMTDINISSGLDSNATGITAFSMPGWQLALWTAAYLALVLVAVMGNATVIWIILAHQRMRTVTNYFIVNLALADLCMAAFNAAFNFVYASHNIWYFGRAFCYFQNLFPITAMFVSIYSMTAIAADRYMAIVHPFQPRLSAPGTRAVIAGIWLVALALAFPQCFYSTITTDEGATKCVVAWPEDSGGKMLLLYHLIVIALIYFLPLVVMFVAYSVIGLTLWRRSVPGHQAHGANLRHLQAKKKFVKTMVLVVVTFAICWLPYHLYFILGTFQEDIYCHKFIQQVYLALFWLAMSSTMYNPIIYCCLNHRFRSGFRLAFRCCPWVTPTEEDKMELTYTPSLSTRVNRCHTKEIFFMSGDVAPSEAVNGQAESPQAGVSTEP
Experimental: as §1
as §2, with “The ratios in the presence of test compound and/or standards were compared to the ratios for control samples (i.e. no stimulating agonist).” left out

NK1 receptor [2] = target: T3, NK1 receptor (Cavia porcellus, UniProt P30547); test: Antagonism of SP-induced plasma protein extravasation in guinea pig trachea; type: in vivo
T3 construct: evaluated in guinea pig lungs; tissue Keystone Biologicals, Cleveland, OH; host or cells: guinea pig lung
Experimental: SP-induced protein leakage through postcapillary venules was assessed by measuring Evans Blue dye accumulation in guinea pig trachea. Animals were anesthetized with pentobarbital then injected with Evans Blue dye (20 mg/kg, i.v., prepared in 0.9% NaCl solution). One minute after dye administration, the antagonist was administered (i.v.) followed by SP (0.3 nmole/kg, i.v.) and, after 5 min, excess dye removed from the circulation by transcardiac perfusion with 50 ml 0.9% NaCl solution. The trachea and primary bronchi were removed, blotted dry and weighed. Dye quantitation was performed spectrophotometrically ([…]) after extracting tissues in formamide for 24 hr at 50° C.. Values were subtracted from background (dye only, no agonist). ED50 (dose of compound which inhibits SP-induced plasma protein extravasation by 50%) was calculated from linear regression analysis.

T1 sequence (P25103 whole entry): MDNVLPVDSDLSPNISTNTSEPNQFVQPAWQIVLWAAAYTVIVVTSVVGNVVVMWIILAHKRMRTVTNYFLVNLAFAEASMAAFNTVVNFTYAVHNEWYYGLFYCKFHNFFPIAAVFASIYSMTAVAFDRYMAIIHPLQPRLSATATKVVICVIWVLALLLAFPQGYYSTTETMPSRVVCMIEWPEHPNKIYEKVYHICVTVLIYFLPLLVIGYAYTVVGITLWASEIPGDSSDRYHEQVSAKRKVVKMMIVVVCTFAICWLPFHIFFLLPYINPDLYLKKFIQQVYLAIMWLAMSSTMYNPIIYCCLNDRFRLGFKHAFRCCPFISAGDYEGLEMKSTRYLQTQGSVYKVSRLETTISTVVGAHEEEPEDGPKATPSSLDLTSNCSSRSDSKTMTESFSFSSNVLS
T3 sequence (P30547 whole entry): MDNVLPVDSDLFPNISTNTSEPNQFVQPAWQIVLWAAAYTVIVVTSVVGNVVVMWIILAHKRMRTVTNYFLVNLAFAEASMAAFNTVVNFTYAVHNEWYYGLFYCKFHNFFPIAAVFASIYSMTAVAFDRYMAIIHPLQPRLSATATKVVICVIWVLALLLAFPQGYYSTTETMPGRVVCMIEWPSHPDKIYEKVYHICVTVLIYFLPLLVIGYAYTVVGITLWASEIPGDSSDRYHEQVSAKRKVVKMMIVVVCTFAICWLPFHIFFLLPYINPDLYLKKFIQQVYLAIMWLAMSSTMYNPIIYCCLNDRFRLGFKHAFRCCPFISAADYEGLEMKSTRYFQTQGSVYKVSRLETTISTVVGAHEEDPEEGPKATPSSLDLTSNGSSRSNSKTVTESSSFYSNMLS

SMILES	relative antagonism of NK1 and NK2 receptors (in words) (NK1 receptor [1]; PI turnover, UC11 (NK1) versus SKLKB82#3 (NK2) cells)	Kb (NK1 receptor [1]; UC11 cells, SP, Schild analysis, mean (95% confidence limits), 2-3 experiments, read-out: NK-1 receptor pA2 (converted)) [nM]	Kb (NK2 receptor) [nM]	NK-2 receptor slope (NK2 receptor; SKLKB82#3 cells, NKA, Schild slope, mean (95% confidence limits))	ED50 (NK1 receptor [2]; guinea pig, iv, i.v. 2 min prior to SP, mean (95% confidence limits), at least 3 doses, at least 4 animals per dose, read-out: ED50 for inhibition of SP-induced plasma protein extravasation) [mg/kg]	relative potency against SP-induced plasma protein extravasation (in words) (NK1 receptor [2]; i.v.)	antagonism of SP-induced PI turnover (in words) (NK1 receptor [1]; UC11 cells, FIG. 1a)	agonist activity (stimulation of PI turnover by compound alone) (NK1 receptor [1]; UC11 or SKLKB82#3 cells)	antagonism of SP-induced plasma protein extravasation (in words) (NK1 receptor [2]; i.v., FIG. 2)	antagonism of NKA-induced PI turnover (in words) (NK2 receptor; SKLKB82#3 cells, FIG. 1b)
COc1cc(C(=O)N2CCC(CCN3CCC(C(N)=O)(c4ccccc4)CC3)(c3ccc(Cl)c(Cl)c3)C2)cc(OC)c1OC (single isomer, unassigned; (+)) [Example 20, (+)-1-[2-[3-(3,4-dichloro-phenyl)-1-(3,4,5-trimethoxy-benzoyl)-pyrrolidin-3-yl]-ethyl]-4-phenylpiperidine-4-carboxylic acid amide]	antagonized both NK1 and NK2 receptors by nearly equivalent amounts	6.46	2.14	1.00						
COc1cc(C(=O)N2CCC(CCN3CCC(C(N)=O)(c4ccccc4)CC3)(c3ccc(Cl)c(Cl)c3)C2)cc(OC)c1OC.Cl (single isomer, unassigned; (+)) [Example 20A, (+)-1-[2-[3-(3,4-dichloro-phenyl)-1-(3,4,5-trimethoxy-benzoyl)-pyrrolidin-3-yl]-ethyl]-4-phenyl-piperidine-4-carboxylic acid amide hydrochloride]					0.2	equipotent NK-1 receptor antagonists				
COc1cc(C(=O)N2CCC(CCN3CCC(C(N)=O)(c4ccccc4)CC3)(c3ccc(Cl)c(Cl)c3)C2)cc(OC)c1OC (centres unmarked) [Example 3, 1-[2-[3-(3,4-dichloro-phenyl)-1-(3,4,5-trimethoxy-benzoyl)-pyrrolidin-3-yl]-ethyl]-4-phenyl-piperidine-4-carboxylic acid amide]						equipotent NK-1 receptor antagonists	antagonizes both NK1 (on UC11 cells) and NK2 (on SKLKB82#3) receptors in a dose-dependent manner	no agonist activity	dose related antagonism of SP-induced plasma protein extravasation in guinea pig trachea	antagonizes both NK1 (on UC11 cells) and NK2 (on SKLKB82#3) receptors in a dose-dependent manner
